# Laboratory results reported in patent US8217050B2, “Adenine derivative as inhibitors of HSP90 for the treatment of cancer” (Chroma Therapeutics Limited, priority 2006, dated 2012).
# Columns and labels:
# [1] = target: T1, human recombinant his-tagged HSP90α (Homo sapiens, UniProt P07900); experiment: Hsp90 HTRF assay (competition with biotinylated GM for binding to HSP90); conditions: bio-GM displacement, 20 h incubation at room temperature, read-out: Inhibitor Activity vs Hsp90
# T1 construct: purchased Prospec Technogene #HSP90
# Description: An HTRF (homogeneous time resolved fluorescence assay) assay was used to measure the interaction of the compounds with HSP90.
# The assay measures binding of biotinylated GM (bio-GM; Biomol, #EI-341, lot: A9199a) to human recombinant his-tagged HSP90α (HSP90; Prospec Technogene, #HSP90, lot: 260HSP9001). A signal is generated by fluorescence resonance energy transfer from an Europium-cryptate labeled anti-his antibody (anti-6HIS-Cryptate; Cisbio International, #61HISKLA, lot: 33V) via the HSP90-GM-biotin complex to a fluorescence acceptor (allophycocyanin) linked to streptavidin (SA-XL; Cisbio International, #610SAXLB, lot: 089).
# Unlabeled GM or compounds compete with the bio-GM for binding to HSP90 resulting in reduced fluorescence energy transfer/assay signal.
# For the assay a preformed (1 h incubation) complex of HSP90 with the anti-his-K is added to the compound solution in a 384 well microplate (Corning, #3710) and incubated for 15 min. A preformed (1 h incubation) complex of bio-GM with the SA-XL was added to the wells and incubated for 20 h. All incubations were performed at room temperature. The final assay volume was 50 μl/well. The final concentrations in the assay were: 50 mM Hepes pH 7.3, 50 mM NaCl, 100 mM KF, 1 mM EDTA, 1 mM DTT, 0.1% Triton-X-100, 1 nM anti-his-K, 40 nM HSP90, 40 nM SA-XL, 40 nM bio-GM. Test compounds were dissolved in DMSO, prediluted in assay buffer and tested at a final concentration between 5000 nM and 0.3 nM. The resulting DMSO concentration was 0.5% and included in all controls. High controls were without test compounds, low controls without test compounds, without HSP90 and without bio-GM. As a reference inhibitor unlabeled GM was used in the same concentrations as the test compounds.
# Inhibition was calculated compared to the assay controls using an Excel spreadsheet (Microsoft). IC50 values were calculated by non-linear least squares fitting to the standard dose-response model using GraphPad Prism (GraphPad Software Inc).
# [2] = system: HCT 116 cell line; experiment: Cell inhibition assay (WST-1 cell proliferation, 120 hrs); format: cell-based; conditions: Homo sapiens, HCT-116, 120 hrs, read-out: Inhibitor Activity vs HCT 116 cell line
# Experimental: Cells were seeded in 96W tissue culture plates (1 well=30 mm^2) at a density of 500 cells per well in 50 μl of the appropriate culture medium (see below). 24 hrs later 50 μl of the compound prepared in the same medium was added as 4 fold dilutions to give final concentrations in the range 0.15 nM-2500 nM (n=6 for each concentration). The plates were then incubated at 37° C., 5% CO2 for 120 hrs. Cell proliferation was assessed using WST-1 (a metabolic indicator dye, Roche Cat no. 1 644 807) according to the manufacturers instructions. The results were calculated as percentage of vehicle response and IC50 values represent the concentration of compound that inhibited the vehicle response by 50%. HCT-116 Culture Medium—Dulbeccos MEM (Sigma D6546) plus 10% heat inactivated fetal calf serum (Hyclone SH30071 Thermo Fischer Scientific) containing 2 mM Glutamine (Sigma cat no G-7513) and 50 U/ml Penicillin and Streptomycin Sulphate (Sigma Cat no P-0781).
# Data were expressed as a percentage inhibition of the control, measured in the absence of inhibitor, as follows: % inhibition=100−((S^i/S^o)×100) where S^i is the signal in the presence of inhibitor and S0 is the signal in the presence of DMSO.
# IC50 values were determined by non-linear regression analysis, after fitting the results of eight data points to the equation for sigmoidal dose response with variable slope (% activity against log concentration of compound), using Graphpad Prism® software.
Structure (SMILES),IC50 [1] [nM],IC50 [2] [nM]
"Nc1ncnc2c1nc(Sc1cc3c(cc1I)OCO3)n2CCC[C@H](N)C(=O)OC1CCCC1 [Example 1, (S)-Cyclopentyl 2-amino-5-(6-amino-8-(6-iodobenzo[d][1,3]dioxol-5-ylthio)-9H-purin-9-yl)pentanoate]",< 1000,< 1000
"Nc1ncnc2c1nc(Sc1cc3c(cc1I)OCO3)n2CC[C@H](N)C(=O)OC1CCCC1 [Example 2, (S)-cyclopentyl 2-amino-4-(6-amino-8-(6-iodobenzo[d][1,3]dioxol-5-ylthio)-9H-purin-9-yl)butanoate]",< 1000,< 1000
"Nc1ncnc2c1nc(Sc1cc3c(cc1I)OCO3)n2CCC[C@@H](N)C(=O)OC1CCCC1 [Example 3, (R)-Cyclopentyl 2-amino-5-(6-amino-8-(6-iodobenzo[d][1,3]dioxol-5-ylthio)-9H-purin-9-yl)pentanoate]",< 1000,< 1000
"Nc1ncnc2c1nc(Sc1cc3c(cc1I)OCO3)n2CC[C@@H](N)C(=O)OC1CCCC1 [Example 4, (R)-cyclopentyl 2-amino-4-(6-amino-8-(6-iodobenzo[d][1,3]dioxol-5-ylthio)-9H-purin-9-yl)butanoate]",< 1000,< 1000
"CC(C)(C)OC(=O)[C@@H](N)CCCn1c(Sc2cc3c(cc2I)OCO3)nc2c(N)ncnc21 [Example 5, (S)-tert-Butyl 2-amino-5-(6-amino-8-(6-iodobenzo[d][1,3]dioxol-5-ylthio)-9H-purin-9-yl)pentanoate]",< 1000,1000 to 10000
"Nc1ncnc2c1nc(Sc1cc3c(cc1I)OCO3)n2C[C@H](N)C(=O)OC1CCCC1 [Example 6, Cyclopentyl 3-{6-amino-8-[(6-iodo-1,3-benzodioxol-5-yl)thio]-9H-purin-9-yl}-L-alaninate]",< 1000,
"Nc1ncnc2c1nc(Sc1ccc3c(c1)OCO3)n2-c1ccc(C[C@H](N)C(=O)OC2CCCC2)cc1 [Example 7, Cyclopentyl 4-{6-amino-8-[(1,3-benzodioxol-5-yl)thio]-9H-purin-9-yl}-L-phenylalaninate]",1000 to 10000,
"Nc1ncnc2c1nc(Sc1cc3c(cc1Br)OCO3)n2-c1ccc(C[C@H](N)C(=O)OC2CCCC2)cc1 [Example 8, Cyclopentyl 4-{6-amino-8-[(6-bromo-1,3-benzodioxol-5-yl)thio]-9H-purin-9-yl}-L-phenylalaninate]",1000 to 10000,
"Nc1ncnc2c1nc(Sc1cc3c(cc1I)OCO3)n2CCC[C@H](N)C(=O)O [Example 9, (S)-2-amino-5-(6-amino-8-(6-iodobenzo[d][1,3]dioxol-5-ylthio)-9H-purin-9-yl)pentanoic acid]",< 1000,
"Nc1ncnc2c1nc(Sc1cc3c(cc1I)OCO3)n2CC[C@H](N)C(=O)O [Example 10, (S)-2-amino-4-(6-amino-8-(6-iodobenzo[d][1,3]dioxol-5-ylthio)-9H-purin-9-yl)butanoic acid]",< 1000,
"Nc1ncnc2c1nc(Sc1ccc3c(c1)OCO3)n2-c1ccc(C[C@H](N)C(=O)O)cc1 [Example 13, 4-{6-amino-8-[(1,3-benzodioxol-5-yl)thio]-9H-purin-9-yl}-L-phenylalanine]",1000 to 10000,
"Nc1ncnc2c1nc(Sc1cc3c(cc1Br)OCO3)n2-c1ccc(C[C@H](N)C(=O)O)cc1 [Example 14, 4-{6-amino-8-[(6-bromo-1,3-benzodioxol-5-yl)thio]-9H-purin-9-yl}-L-phenyl alanine]",< 1000,
